In patent US11130772B2, “CYP-eicosanoid derivatives” (MAX-DELBRUECK-CENTRUM FUER MOLEKULARE MEDIZIN, priority 2014, dated 2021):
“Also recorded” adds a separate entry of the source.

These compounds were tested on spontaneously beating neonatal rat cardiomyocytes (NRCMs) (assay: Chronotropic effect on spontaneously beating neonatal rat cardiomyocytes (in vitro cardiac arrhythmia model)). Details: 30 nM final concentration, 5 min incubation.
Type: cell-based, neonatal Wistar rats
Excerpt: The activity of the n-3 PUFA analogues according to the invention can, for example, be determined in appropriate in vitro and/or in vivo assays. For instance, the biological activity of the n-3 PUFA analogues according to the present invention may be determined using the established cell model of Kang and Leaf (Proc Natl Acad Sci USA, 1994. 91(21): p. 9886-90.) known to those skilled in the art.
In order to measure the biological activities of the novel compounds an established cell model was used (Kang, J. X. and A. Leaf, Effects of long-chain polyunsaturated fatty acids on the contraction of neonatal rat cardiac myocytes. Proc Natl Acad Sci USA, 1994. 91(21): p. 9886-90.). The spontaneously beating neonatal rat cardiomyocytes (NRCMs) are a model system to investigate anti-arrhythmic effects of test-compounds.
Isolation and cultivation of NRCMs were performed as described previously (Wallukat, G; Wollenberger, A. Biomed Biochim Acta. 1987;78:634-639; Wallukat G, Homuth V, Fischer T, Lindschau C, Horstkamp B, Jupner A, Baur E, Nissen E, Vetter K, Neichel D, Dudenhausen J W, Haller H, Luft F C. J Clin Invest. 1999; 103: 945-952). Briefly, neonatal Wistar rats (1-2 days old) were killed in conformity to the recommendations of the Community of Health Service of the City of Berlin and the cardiomyocytes were dissociated from the minced ventricles with a 0.2% solution of crude trypsin. The isolated cells were then cultured as monolayers on the bottom (12.5 cm^2) of Falcon flasks in 2.5 ml of Halle SM 20-I medium equilibrated with humidified air. The medium contained 10% heat-inactivated FCS and 2 μmol/l fluoro-deoxyuridine (Serva, Heidelberg, Germany), the latter to prevent proliferation of non-muscle cells. The NRCMs (2.4×10^6 cells/flask) were cultured at 37° C. in an incubator. After 5 to 7 days, the NRCMs formed spontaneously beating cell clusters. […] On the day of the experiment, the culture medium was replaced by 2.0 ml fresh serum-containing medium. Two hours later, the beating rates were monitored at 37° C. using an inverted microscope equipped with a heating stage. To determine the basal rate, 6 to 8 individual clusters were selected and the number of contractions was counted for 15 sec. After that, the compound to be tested was added to the culture and the beating rate of the same clusters was monitored 5 min later again. Based on the difference between the basal and compound-induced beating rate of the individual clusters, the chronotropic effects (Δ beats/min) were calculated and are given as mean±SE values. N refers to the number of clusters monitored which originated, in general, from at least three independent NRCM cultures.
All compounds tested were added to the NRCMs at a final concentration of 30 nM and the measurement was performed after 5 min of incubation; except EPA that was used at a final concentration of 3.3 μM and the effect was monitored after 30 min of incubation.

**Q.** How did the “chronotropic effect on spontaneous beating rate (in words)” value (“chronotropic effect … (in words)” below) turn out when CCC1OC1C/C=C\C/C=C\C/C=C\C/C=C\CCCC(=O)O (stereo not shown) [17,18-EEQ, 17,18-epoxyeicosatetraenoic acid, reference compound] was run?
**A.** negative chronotropic effect

**Q.** How did the “chronotropic effect … (in words)” value turn out when CNC(=O)C(=O)NCCCC/C=C\CCCCCCCCCC1=NOS(=O)N1 (stereo not shown) [C38, N^1-methyl-N^2-(15-(2-oxido-3H-1,2,3,5-oxathiadiazol-4-yl)pentadec-5(Z)-en-1-yl)oxalamide] was run?
**A.** negative chronotropic effect

**Q.** CNC(=O)C(=O)NCCCC/C=C\CCCCCCCCCP(=O)([O-])[O-].[Na+].[Na+] [C41, disodium 15-(2-(methylamino)-2-oxoacetamido)pentadec-10(Z)-enylphosphonate] was tested. Which “chronotropic effect … (in words)” value did it give?
**A.** negative chronotropic effect

**Q.** With CNC(=O)C(=O)NCCCC/C=C\CCCCCCCCCS(=O)(=O)[O-].[Na+] [C42, Sodium 15-(2-(methylamino)-2-oxoacetamido)pentadec-10(Z)-en-1-sulfonate] as the compound, how does the “chronotropic effect … (in words)” value read?
**A.** negative chronotropic effect

**Q.** How did the “chronotropic effect … (in words)” value turn out when CNC(=O)C(=O)NCCCC/C=C\CCCCCCCCCSc1ccccc1O [C44, (Z)—N^1-(15-((2-hydroxyphenyl)thio)pentadec-5-en-1-yl)-N^2-methyloxalamide] was run?
**A.** lowest activity; also recorded: negative chronotropic effect

**Q.** With CNC(=O)C(=O)NCCCc1ccccc1CCCCCCP(=O)([O-])[O-].[Na+].[Na+] [C48] as the compound, how does the “chronotropic effect … (in words)” value read?
**A.** negative chronotropic effects

**Q.** With CNC(=O)C(=O)NCCCCc1ccccc1CCCCCCCCCP(=O)([O-])[O-].[Na+].[Na+] [C49] as the compound, how does the “chronotropic effect … (in words)” value read?
**A.** negative chronotropic effects

**Q.** CNC(=O)C(=O)NCCCC/C=C\CCCCCCCCCC(=O)NS(=O)(=O)c1ccccc1 [C50, N^1-(16-phenylsulfonamido-16-oxohexadec-5(Z)-en-1-yl)-N^2-methyloxalamide] was tested. Which “chronotropic effect … (in words)” value did it give?
**A.** negative chronotropic effect

**Q.** Which “chronotropic effect … (in words)” value does the source give for “N^1-(15-((2-acetamidobenzo[d]thiazol-7-yl)oxy)pentadec-5(Z)-en-1-yl)-N^2-methyloxalamide [C43]” here?
**A.** negative chronotropic effect

Same assay, conditions: 30 nM final concentration, 5 min incubation, n=12 clusters

**Q.** For CNC(=O)C(=O)NCCCC/C=C\CCCCCCCCCSc1ccccc1O [C44, (Z)—N^1-(15-((2-hydroxyphenyl)thio)pentadec-5-en-1-yl)-N^2-methyloxalamide], which “chronotropic effect (Δ beats/min), mean±SE” value is on record?
**A.** −7.5±4.5 beats/min
